A word on the IC50: it is the concentration that inhibits the measured activity by half. A low value points to higher potency.

Test [1] concerns allergically induced bronchospasm. Description: allergically induced bronchospasm in the guinea pig (modified Konzett-Rossler bronchospasmolysis). Format: in vivo. The settings on record: Cavia porcellus, iv, 0.25 h, test substance intravenously, ovalbumin-triggered bronchial constriction 15 minutes later, read-out: inhibitory effect (ID50) in allergically induced bronchospasm. The source says:
The compounds of the invention are characterized by good antiallergic and antiasthmatic effect.
The test model used to determine these values was a modification of the bronchospasmolysis experiment described by Konzett and Rossler (1).
The animals were narcoticized with urethane (1.5 g/kg i.p.). Trachea and v. jugularis were exposed by means of a skin incision. A tracheal cannula (Our own construction) was fitted to permit the intravenous application of propanolol, ovalbumin and a test substances, and which also permitted artificial respiration (Starling Pump, Braun Melsungen) and measurement of the intratracheal pressure (pressure uptake: Venous Pressure Transducer, Statham, type W 101 connected to a bridge amplifier, Hellige and Multicorder 6-channel ink plotter, Watanabe, type: WA 621-1). The entire preparation was completed after about 15 minutes. During the subsequent experiment the animals were ventilated with 40 breaths per minute and a volume of about 1 ml room air/100 g body weight. The intratracheal pressure was adjusted by this means to 10-15 cm water column. After a habituation phase of about 30 minutes, the test substances were administered intravenously. Propanolol was administered 10 minutes later. […] The resultant increase in intratracheal pressure was recorded on the plotter for at least 15 minutes.

Test [2] concerns histamine-precontracted trachea. The test is described as follows: histamine-precontracted trachea model (after Foster).

As for `CNCCCC(CC(=O)O)n1nc(Cc2ccc(Cl)cc2)c2ccccc2c1=O` (stereo not shown) [Example 6, 4-(4-chlorobenzyl)-2-[5-methylamino-1-carboxy-t-2-pentyl]-1(2H) -phthalazinone], in test [1], the ED50 was found to be 0.8 µg/kg. This compound displayed an IC50 in test [2] of 35.5 µM.
For `CNCCC(CCC(=O)O)n1nc(Cc2ccc(Cl)cc2)c2ccccc2c1=O` (stereo not shown) [Example 3, 4-(4-chlorobenzyl)-2-(5-methylamino-1-carboxy-3-pentyl)1(2H) -phthalazinone], in test [1], the ED50 came out at 9.9 µg/kg. This compound displayed an IC50 in test [2] of 3.86 µM.
